Reference: ChEMBL document CHEMBL5653615 (J Biol Chem, 2013)

Legend:
[1] = molecular target: Protein-tyrosine kinase 6 (Homo sapiens) (UniProt Q13882); test: Inhibition of human BRK at 500 nM by HotSpot assay relative to control
[2] = molecular target: T1, Megakaryocyte-associated tyrosine-protein kinase (Homo sapiens) (UniProt P42679); test: Inhibition of human CTK at 500 nM by HotSpot assay relative to control
T1 sequence (whole entry): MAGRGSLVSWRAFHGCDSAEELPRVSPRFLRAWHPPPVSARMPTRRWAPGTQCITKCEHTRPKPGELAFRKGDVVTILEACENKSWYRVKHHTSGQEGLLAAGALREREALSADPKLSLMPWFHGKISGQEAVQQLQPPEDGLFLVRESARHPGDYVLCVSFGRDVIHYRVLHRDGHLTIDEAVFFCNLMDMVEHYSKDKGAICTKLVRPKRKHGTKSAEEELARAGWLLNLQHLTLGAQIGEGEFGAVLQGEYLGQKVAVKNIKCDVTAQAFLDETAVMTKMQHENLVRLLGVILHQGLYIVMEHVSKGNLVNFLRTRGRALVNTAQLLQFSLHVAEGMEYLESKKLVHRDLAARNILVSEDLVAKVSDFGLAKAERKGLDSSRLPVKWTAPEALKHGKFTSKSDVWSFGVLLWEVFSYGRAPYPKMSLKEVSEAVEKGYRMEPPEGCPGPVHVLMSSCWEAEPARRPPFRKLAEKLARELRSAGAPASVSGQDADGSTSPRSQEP

[3] = molecular target: Vascular endothelial growth factor receptor 1 (Homo sapiens) (UniProt P17948); test: Inhibition of human FLT1 at 500 nM by HotSpot assay relative to control
[4] = molecular target: T2, Serine/threonine-protein kinase D3 (Homo sapiens) (UniProt O94806); test: Inhibition of human PRKD3 at 500 nM by HotSpot assay relative to control
T2 sequence (whole entry): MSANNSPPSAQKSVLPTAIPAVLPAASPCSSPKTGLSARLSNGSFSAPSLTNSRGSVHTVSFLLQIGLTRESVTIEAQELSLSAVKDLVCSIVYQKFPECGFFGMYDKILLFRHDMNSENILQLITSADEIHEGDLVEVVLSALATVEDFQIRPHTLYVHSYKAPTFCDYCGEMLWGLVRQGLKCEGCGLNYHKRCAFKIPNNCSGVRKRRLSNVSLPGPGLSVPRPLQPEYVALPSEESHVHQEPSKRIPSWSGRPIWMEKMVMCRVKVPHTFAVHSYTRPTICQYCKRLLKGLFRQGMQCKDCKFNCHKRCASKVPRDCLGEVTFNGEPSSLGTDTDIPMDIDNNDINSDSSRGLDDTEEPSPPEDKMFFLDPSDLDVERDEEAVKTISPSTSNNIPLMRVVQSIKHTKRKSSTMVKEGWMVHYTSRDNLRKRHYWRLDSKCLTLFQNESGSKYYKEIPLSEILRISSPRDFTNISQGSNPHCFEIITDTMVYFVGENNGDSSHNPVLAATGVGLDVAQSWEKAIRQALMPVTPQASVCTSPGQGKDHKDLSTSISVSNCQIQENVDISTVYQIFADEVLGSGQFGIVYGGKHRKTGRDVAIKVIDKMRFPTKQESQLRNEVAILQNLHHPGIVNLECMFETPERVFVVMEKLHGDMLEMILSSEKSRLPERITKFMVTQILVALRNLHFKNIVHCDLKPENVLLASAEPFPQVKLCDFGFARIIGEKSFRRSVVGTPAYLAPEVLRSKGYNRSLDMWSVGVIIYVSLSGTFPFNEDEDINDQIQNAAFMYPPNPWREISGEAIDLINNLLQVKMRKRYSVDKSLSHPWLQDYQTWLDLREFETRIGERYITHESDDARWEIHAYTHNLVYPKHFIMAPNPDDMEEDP

[5] = molecular target: T3, Serine/threonine-protein kinase TAO3 (Homo sapiens) (UniProt Q9H2K8); test: Inhibition of human JIK at 500 nM by HotSpot assay relative to control
T3 sequence (whole entry): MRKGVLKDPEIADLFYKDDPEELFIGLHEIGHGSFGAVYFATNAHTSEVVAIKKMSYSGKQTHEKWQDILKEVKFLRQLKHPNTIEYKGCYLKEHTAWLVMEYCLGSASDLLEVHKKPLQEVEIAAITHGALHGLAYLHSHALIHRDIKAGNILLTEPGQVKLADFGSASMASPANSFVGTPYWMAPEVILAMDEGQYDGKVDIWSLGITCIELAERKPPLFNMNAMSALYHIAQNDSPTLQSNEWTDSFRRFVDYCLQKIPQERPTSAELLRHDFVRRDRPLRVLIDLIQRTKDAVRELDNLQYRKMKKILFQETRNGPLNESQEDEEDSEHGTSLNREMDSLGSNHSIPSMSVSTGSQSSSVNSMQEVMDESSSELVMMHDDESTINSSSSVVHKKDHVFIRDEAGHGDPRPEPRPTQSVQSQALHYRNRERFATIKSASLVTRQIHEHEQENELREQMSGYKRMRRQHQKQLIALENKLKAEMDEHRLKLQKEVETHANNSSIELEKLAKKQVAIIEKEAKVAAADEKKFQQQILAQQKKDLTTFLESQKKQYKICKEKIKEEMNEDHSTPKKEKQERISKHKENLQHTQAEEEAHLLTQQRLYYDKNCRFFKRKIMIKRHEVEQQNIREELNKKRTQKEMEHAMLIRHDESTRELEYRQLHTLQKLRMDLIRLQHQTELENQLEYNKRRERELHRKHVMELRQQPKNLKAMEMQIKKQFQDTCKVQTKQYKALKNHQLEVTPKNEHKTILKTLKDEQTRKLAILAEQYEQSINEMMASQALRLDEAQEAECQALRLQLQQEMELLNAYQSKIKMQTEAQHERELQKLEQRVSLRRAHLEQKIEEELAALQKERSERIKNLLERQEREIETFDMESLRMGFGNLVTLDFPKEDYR

[6] = molecular target: Leukocyte tyrosine kinase receptor (Homo sapiens) (UniProt P29376); test: Inhibition of human LTK at 500 nM by HotSpot assay relative to control
Chain of Leukocyte tyrosine kinase receptor (Homo sapiens) (P29376 whole entry): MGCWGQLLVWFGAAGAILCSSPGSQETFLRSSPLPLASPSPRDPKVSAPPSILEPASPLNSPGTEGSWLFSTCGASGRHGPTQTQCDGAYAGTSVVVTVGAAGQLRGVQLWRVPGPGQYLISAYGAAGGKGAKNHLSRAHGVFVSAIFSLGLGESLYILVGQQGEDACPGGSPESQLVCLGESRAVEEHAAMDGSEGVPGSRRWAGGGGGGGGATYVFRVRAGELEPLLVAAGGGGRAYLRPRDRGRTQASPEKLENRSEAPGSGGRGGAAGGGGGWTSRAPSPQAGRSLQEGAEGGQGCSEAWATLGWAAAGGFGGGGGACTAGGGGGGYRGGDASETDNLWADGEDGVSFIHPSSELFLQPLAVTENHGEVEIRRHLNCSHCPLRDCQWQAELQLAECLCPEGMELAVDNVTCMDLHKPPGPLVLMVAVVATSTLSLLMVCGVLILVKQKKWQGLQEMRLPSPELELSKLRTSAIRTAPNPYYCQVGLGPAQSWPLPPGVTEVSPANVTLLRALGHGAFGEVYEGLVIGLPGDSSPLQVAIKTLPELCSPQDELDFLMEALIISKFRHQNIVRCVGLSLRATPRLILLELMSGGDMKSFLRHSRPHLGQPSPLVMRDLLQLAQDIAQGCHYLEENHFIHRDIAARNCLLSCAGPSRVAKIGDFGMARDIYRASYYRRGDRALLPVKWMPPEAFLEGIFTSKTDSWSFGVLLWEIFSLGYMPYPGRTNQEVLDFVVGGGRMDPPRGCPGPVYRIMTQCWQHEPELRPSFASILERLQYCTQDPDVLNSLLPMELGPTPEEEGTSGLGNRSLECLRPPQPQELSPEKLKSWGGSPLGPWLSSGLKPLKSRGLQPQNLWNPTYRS

Chain of Vascular endothelial growth factor receptor 1 (Homo sapiens) (P17948 whole entry): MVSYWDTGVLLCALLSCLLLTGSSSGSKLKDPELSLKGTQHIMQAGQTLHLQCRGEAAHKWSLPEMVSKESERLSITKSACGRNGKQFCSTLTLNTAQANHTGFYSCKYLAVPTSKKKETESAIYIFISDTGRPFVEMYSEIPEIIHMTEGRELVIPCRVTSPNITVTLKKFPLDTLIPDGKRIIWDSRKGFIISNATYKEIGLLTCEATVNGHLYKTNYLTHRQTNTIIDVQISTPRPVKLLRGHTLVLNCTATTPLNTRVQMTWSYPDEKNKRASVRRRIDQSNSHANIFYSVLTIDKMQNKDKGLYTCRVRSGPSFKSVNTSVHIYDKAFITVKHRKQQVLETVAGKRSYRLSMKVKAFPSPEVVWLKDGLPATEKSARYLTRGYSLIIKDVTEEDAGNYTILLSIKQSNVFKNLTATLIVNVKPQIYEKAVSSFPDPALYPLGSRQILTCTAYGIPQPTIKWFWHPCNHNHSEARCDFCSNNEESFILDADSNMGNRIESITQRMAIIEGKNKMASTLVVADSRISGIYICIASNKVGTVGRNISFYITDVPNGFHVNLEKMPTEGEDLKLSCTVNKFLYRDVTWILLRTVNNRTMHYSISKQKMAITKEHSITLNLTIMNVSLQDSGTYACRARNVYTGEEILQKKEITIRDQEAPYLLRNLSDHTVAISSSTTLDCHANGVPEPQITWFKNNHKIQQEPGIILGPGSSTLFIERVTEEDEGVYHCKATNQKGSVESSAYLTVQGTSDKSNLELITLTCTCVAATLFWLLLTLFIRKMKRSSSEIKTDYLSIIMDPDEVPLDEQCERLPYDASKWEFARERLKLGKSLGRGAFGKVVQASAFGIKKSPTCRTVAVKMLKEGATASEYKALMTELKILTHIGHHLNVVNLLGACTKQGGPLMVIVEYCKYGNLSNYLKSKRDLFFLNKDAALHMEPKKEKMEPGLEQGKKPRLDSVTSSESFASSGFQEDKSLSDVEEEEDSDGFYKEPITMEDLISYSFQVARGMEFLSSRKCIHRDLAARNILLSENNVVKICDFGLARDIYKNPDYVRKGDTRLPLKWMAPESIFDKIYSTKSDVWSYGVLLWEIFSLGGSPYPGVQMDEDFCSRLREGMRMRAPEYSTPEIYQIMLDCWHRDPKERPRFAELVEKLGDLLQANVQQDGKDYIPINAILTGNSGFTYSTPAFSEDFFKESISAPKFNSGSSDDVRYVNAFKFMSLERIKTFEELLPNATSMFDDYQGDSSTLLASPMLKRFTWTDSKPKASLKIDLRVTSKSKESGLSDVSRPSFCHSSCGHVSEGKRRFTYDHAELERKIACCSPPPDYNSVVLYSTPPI
Chain of Protein-tyrosine kinase 6 (Homo sapiens) (Q13882 whole entry, looked up): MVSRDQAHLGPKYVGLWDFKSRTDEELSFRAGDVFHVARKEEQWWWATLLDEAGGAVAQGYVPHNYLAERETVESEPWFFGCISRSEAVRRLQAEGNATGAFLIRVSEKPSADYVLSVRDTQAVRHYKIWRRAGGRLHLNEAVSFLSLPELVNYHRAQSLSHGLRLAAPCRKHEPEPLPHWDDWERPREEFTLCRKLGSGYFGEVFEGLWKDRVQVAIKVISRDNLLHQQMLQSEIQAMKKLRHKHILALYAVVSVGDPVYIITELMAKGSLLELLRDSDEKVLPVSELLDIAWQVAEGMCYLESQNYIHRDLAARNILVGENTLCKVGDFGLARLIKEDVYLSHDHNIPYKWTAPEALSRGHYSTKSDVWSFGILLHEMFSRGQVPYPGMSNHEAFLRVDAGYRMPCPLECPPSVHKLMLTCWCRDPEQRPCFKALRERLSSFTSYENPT

SMILES | inhibition [1] [%] | inhibition [2] [%] | inhibition [3] [%] | inhibition [4] [%] | inhibition [5] [%] | inhibition [6] [%]
Oc1n[nH]c2nnc(-c3c(-c4ccccc4)nn4ccccc34)cc12 | 0.52 | 1.78 | 0.38 | 1.12 | 4.08 | -7.87
Nc1n[nH]c2nnc(-c3c(-c4ccccc4)nn4ccccc34)cc12 | 9.19 | 4.4 | 3.34 | 41.1 | -1.15 | 9.45
